This note sets out measurements from patent publication US20230023463A1, “COMPOSITION FOR PROMOTING HAIR THICKENING, COMPOSITION FOR SUSTAINING GROWTH PHASE IN HAIR CYCLE AND COMPOSITION FOR PROMOTING VEGF PRODUCTION, COMPOSITION FOR PROMOTING TRANSITION FROM RESTING PHASE TO GROWTH PHASE IN HAIR CYCLE AND COMPOSITION FOR PROMOTING FGF7 PRODUCTION, AND COMPOSITION FOR …” (priority 2020, published 2023).

What all share (format): cell-based
For test [1], the system named is FGF7 production in hair papilla cells. Kind of test: FGF7 production in hair papilla cells (ELISA of culture supernatant). As to conditions: human hair papilla cells, cultured 3 days, vs control, P<0.05 or P<0.01, FIG. 4. As for the experimental part:
In the same manner as in Experimental Example 1, human hair papilla cells were cultured for 4 days, and seeded on a collagen-coated 48 well plate at a cell density of 1.2×10^4 cells/0.3 mL/well. The cells were cultured for one day in a carbon dioxide incubator (5 volume % carbon dioxide, 37° C.), and used for the evaluation of the FGF7 production amount. For the evaluation of the FGF7 production amount, the same evaluation medium as in Experimental Example 1 was used.
L-ornithine was dissolved in the evaluation medium to prepare a solution.
In the above-mentioned hair papilla cell culture medium on the collagen-coated plate, the medium was replaced with the evaluation medium, the above-mentioned solution of L-ornithine was added at a given concentration, and the cells were cultured for 3 days at 37° C., 5 volume % carbon dioxide (n=3 at each addition concentration).
Similar culture and treatment were performed without adding the solution of L-ornithine, and used as the control.
(§1) Then, the supernatant of the culture medium was collected, centrifuged at 1500 rpm, and the supernatant was collected and cryopreserved at −30° C.
The concentration of FGF7 in the supernatant of the culture was measured by thawing the collected supernatant and using the FGF7 Enzyme-Linked ImmunoSorbent Assay (ELISA) kit (Abcam Plc.). […]
On the technique in general: ELISA stands for enzyme-linked immunosorbent assay.

The test system of test [2] is human hair papilla cells. Kind of test: Proliferation of hair papilla cells, ornithine (Cell Counting kit-8). As to conditions: cultured one day, P<0.05 or P<0.01, FIG. 6. The protocol: In the same manner as in Experimental Example 1, human hair papilla cells were cultured for 4 days, and seeded on a collagen-coated 96 well plate at a cell density of 2.5×10^3 cells/0.1 mL/well. The cells were cultured for one day in a carbon dioxide incubator (5 volume % carbon dioxide, 37° C.), and used for the evaluation of the proliferation of hair papilla cells. For the evaluation of the proliferation of hair papilla cells, a medium having the same amino acid composition as the evaluation medium used in Experimental Example 1 and other components diluted at a ¼ concentration was used as the evaluation medium.
L-ornithine was dissolved in the above-mentioned evaluation medium to prepare a solution. […]
Then the Cell Counting kit-8 (DOJINDO LABORATORIES) was added to each well by 10 μL, the plate was placed in a carbon dioxide incubator (5 volume % carbon dioxide, 37° C.) for 2 hr, and the absorbance at 450 nm was measured using a microplate reader. […]
The measurement results were converted to relative values (%) with the absorbance in the control as 100, and shown as mean±standard error in FIG. 6.
(In general: Formazan colour is commonly taken as a measure of viable cells.)

The test system of test [3] is VEGF production in hair papilla cells. Kind of test: VEGF production in hair papilla cells (ELISA of culture supernatant). As to conditions: human hair papilla cells, cultured 3 days, vs control. As for the experimental part:
Using a papilla cell growth medium (PCGM) (Toyobo Co., Ltd.), human hair papilla cells (Toyobo Co., Ltd.) were cultured for 4 days on a collagen-coated dish, and seeded on a collagen-coated 48 well plate at a cell density of 1.2×10^4 cells/0.3 mL/well. The cells were cultured for one day in a carbon dioxide incubator (5 volume % carbon dioxide, 37° C.), and used for the evaluation of the VEGF production amount.
For the evaluation of the VEGF production amount, 20 kinds of amino acids were mixed at the composition shown in Table 1, the components other than amino acids were composed as in Dulbecco's modified Eagle medium (DMEM), glucose was added at 1 g/L, and the resulting medium was used as an evaluation medium.
L-citrulline, L-tryptophan, and L-glutamine were respectively dissolved in the evaluation medium to prepare each solution.
In the above-described hair papilla cell culture medium on the collagen-coated plate, the medium was replaced with the evaluation medium, the above-described respective solutions of L-citrulline, L-tryptophan, and L-glutamine were added at a given concentration, and the cells were cultured for 3 days at 37° C., 5 volume % carbon dioxide (n=4 for L-citrulline, L-tryptophan, and L-glutamine at each addition concentration).
as §1
Similar culture and treatment were performed without adding each solution of L-citrulline, L-tryptophan, and L-glutamine and used as the control.
The concentration of VEGF in the supernatant of the culture was measured by thawing the collected supernatant and using the VEGF Enzyme-Linked ImmunoSorbent Assay (ELISA) kit (Abcam Plc.).
The measurement results were converted to relative values (%) with the VEGF concentration in the control as 100, and shown as mean±standard error in FIGS. 1 to 3.

Test [4] concerns human hair papilla cells. Kind of test: Proliferation of hair papilla cells, citrulline (Cell Counting kit-8). As to conditions: 2 mM, cultured one day, P<0.01, FIG. 5. The protocol:
In the same manner as in Experimental Example 1, human hair papilla cells were cultured for 4 days, and seeded on a collagen-coated 96 well plate at a cell density of 2.5×10^3 cells/0.1 mL/well. The cells were cultured for one day in a carbon dioxide incubator (5 volume % carbon dioxide, 37° C.), and used for the evaluation of the proliferation of hair papilla cells. For the evaluation of the proliferation of hair papilla cells, the same evaluation medium as used in Experimental Example 1 was used.
L-citrulline was dissolved in the evaluation medium to prepare a solution.
In the above-mentioned hair papilla cell culture medium on the collagen-coated plate, the medium was replaced with the evaluation medium, the above-mentioned solution of L-citrulline was added to a concentration of 2 mM, and the cells were cultured for one day at 37° C., 5 volume % carbon dioxide (n=7).
Then the Cell Counting kit-8 (DOJINDO LABORATORIES) was added to each well by 10 μL, the plate was placed in a carbon dioxide incubator (5 volume % carbon dioxide, 37° C.) for 2 hr, and the absorbance at 450 nm was measured using a microplate reader.
Similar culture and treatment were performed without adding the solution of L-citrulline and used as the control.
The measurement results were converted to relative values (%) with the absorbance in the control as 100, and shown as mean±standard error in FIG. 5.

Take `NCCCC(N)C(=O)O` [L-ornithine, 2,5-diamino pentanoic acid]: the “addition concentration at which a significant increase in the FGF7 production amount was observed” value in test [1] is recorded as “not less than 151 μM”. Besides, the “number of hair papilla cells as compared with the control” value in test [2] (756 μM) and in test [2] (3.7 mM) was “significant increase” each time.
As to `N[C@@H](Cc1c[nH]c2ccccc12)C(=O)O` [L-tryptophan, 2-amino-3-(indolyl)propionic acid], the “addition concentration at which a significant increase in the VEGF production was observed” value in test [3] (P<0.01 or P<0.001, FIGS. 2, 3) was “not less than 0.01 mM”.
In the case of `NC(=O)CCC(N)C(=O)O` [L-glutamine, 2-amino-4-carbamoylbutanoic acid], the “addition concentration at which a significant increase in the VEGF production was observed” value in test [3] (P<0.01 or P<0.001, FIGS. 2, 3) is reported as “not less than 0.44 mM”.
On to `NC(=O)NCCCC(N)C(=O)O` [L-citrulline, 2-amino-5-(carbamoylamino)pentanoic acid], for which, in test [3] (P<0.01 or P<0.001, FIG. 1), the “addition concentration at which a significant increase in the VEGF production was observed” value is “not less than 4.56 μM”. Further, the “number of hair papilla cells as compared with the control” value in test [4] was “significant increase”.
